Converted amounts (≈) assume the structure as drawn.
Experiments:
[1] = test system: M. tuberculosis; assay: Anti-mycobacterial activity (inhibition of growth of M. tuberculosis); type: cell-based; details: concentration exhibiting 90% inhibition against growth of M. tuberculosis, 'Not active' at 100 μg/ml; for IC90: Mycobacterium tuberculosis, read-out: IC90 value determined against M. tuberculosis
[2] = test system: human monocytic leukaemia Thp-1 cell lines; assay: Anti proliferative activity-MTT cell proliferation assay on human Thp-1 cell line; type: cell-based; details: for % Inhibition on Thp-1 cell line at 100 μg/ml / inhibition at 100 µg/mL: 72 h, MTT, average±standard deviation, triplicate, 100 μg/ml; for inhibition at 100 µg/mL: Homo sapiens, THP-1, 72 h

SMILES: C=C1C(=O)O[C@H]2/C=C(\C)C[C@@H]3C=C(CC/C=C(\C)CC[C@H]12)C(=O)O3 [Compound 1, (1R,3E,5S,9R,12E)-3,12-Dimethyl-8-methylene-6,18-dioxatricyclo[14.2.1.05,9]nonadeca-3,12,16(19)-triene-7,17-dione]
- IC90 [1]: 6.53 µg/mL (≈ 19.9 µM)
- % Inhibition on Thp-1 cell line at 100 μg/ml [2]: 96.4 ± 0.4592%

SMILES: C[C@]12CCC[C@](C)(C(=O)O)[C@@H]1CC[C@@]13C[C@@H](CC[C@@H]12)[C@@](O)(CO)C3 [Compound 2, phyllocladan-16α,17-dihydroxy-19-oic acid]
- IC90 value determined against M. tuberculosis [1]: Not active^c
- % Inhibition on Thp-1 cell line at 100 μg/ml [2]: 59.02 ± 0.8725%
- inhibition at 100 µg/mL [2]: 59 to 97%
- anti proliferative activity (in words) ([2]; qualitative statement): comparable to well known drug, paclitaxel

SMILES: NNC(=O)c1ccncc1 [Isoniazid, reference compound]
- IC90 [1]: 0.05 ± 0.003 µg/mL (≈ 0.365 µM)

SMILES: CC(=O)O[C@H]1C(=O)[C@@]2(C)[C@H]([C@H](OC(=O)c3ccccc3)[C@]3(O)C[C@H](OC(=O)[C@H](O)[C@@H](NC(=O)c4ccccc4)c4ccccc4)C(C)=C1C3(C)C)[C@]1(OC(C)=O)CO[C@@H]1C[C@@H]2O [Paclitaxel, reference compound]
- inhibition at 100 µg/mL [2]: 61%
